In patent publication US11311522B1 (Cavion, Inc., priority 2018, dated 2022):
Like-named read-outs stand apart in the source and are kept apart here.

Legend:
[1] = Phase 1 single-dose pharmacokinetics (PN001, PN002/Part I, PN003, PN005); type: in vivo, human; details: 8 mg CX-8998
[2] = system: WAG/Rij rats; assay: WAG/Rij rat model of absence epilepsy; type: in vivo; details: 10 mg/kg oral
From the text: Other T-type antagonists from structurally diverse series have shown similar efficacy in this model (Broicher, 2007; Blumenfeld, 2008; Broicher, 2008; Shipe, 2008; Yang, 2008; Uebele, 2009; Russo, 2010; Russo, 2011).
Data were scored with automated seizure analysis software, averaged, and normalized to enable treatment comparisons (FIG. 76)
Control animals received vehicle administrations. […] Source: Merck TTA Package Description (FIG. 79).

[3] = Pharmacokinetics in rats; type: in vivo, rat; details: for Ratio of AUC24 (metabolite/CX-8998): Rat, single oral dose 10 mg/kg of CX-8998; for AUC: rat, plasma, po, 10 mg/kg, read-out: AUC24
Protocol: (§3) The validity and reproducibility of the assays were determined, and the precision and accuracy for calibration standards and quality control samples were examined. […] The analytes were stable in plasma under the storage and assay conditions. […] Assay performances were satisfactory and met acceptance criteria for system performance suitability, quantitation range, calibration linearity, assay accuracy and precision, and assay recovery.

[4] = Pharmacokinetics in dogs; type: in vivo, dog; details: for AUC: male, dog, plasma, po, 0.5 mg/kg, read-out: AUC24
Protocol: as §3

[5] = In vitro plasma protein binding, rat; type: in vitro ADME
From the text: (§1) CX-8998 distributes readily to the brain in rats and to brain and cerebral spinal fluid (CSF) in dogs.

[6] = In vitro plasma protein binding, dog; type: in vitro ADME
From the text: as §1

[7] = In vitro plasma protein binding, monkey; type: in vitro ADME
From the text: as §1

[8] = system: P-glycoprotein; assay: P-glycoprotein bidirectional transport; type: in vitro ADME, human, monkey, and rat
From the text: (§2) Glucuronide conjugates of the oxygenated metabolites are detected in human, monkey, and dog hepatocyte preparations. […] However, the abundance of CYP3A5, CYP2C19, and CYP2D6 in human liver microsomes is low (2%-5%) relative to the primary contributors, CYP3A4 (˜30%) and CYP2C9 (˜20%). […] Information on reproductive and developmental toxicology was obtained in a 28-day pivotal female fertility study in rats and in preliminary embryo-fetal development studies in rats and rabbits.

[9] = target: T1, breast cancer resistance protein (BCRP) (Homo sapiens, UniProt Q9UNQ0); assay: BCRP transport; type: in vitro ADME
T1 sequence (Q9UNQ0 1-655): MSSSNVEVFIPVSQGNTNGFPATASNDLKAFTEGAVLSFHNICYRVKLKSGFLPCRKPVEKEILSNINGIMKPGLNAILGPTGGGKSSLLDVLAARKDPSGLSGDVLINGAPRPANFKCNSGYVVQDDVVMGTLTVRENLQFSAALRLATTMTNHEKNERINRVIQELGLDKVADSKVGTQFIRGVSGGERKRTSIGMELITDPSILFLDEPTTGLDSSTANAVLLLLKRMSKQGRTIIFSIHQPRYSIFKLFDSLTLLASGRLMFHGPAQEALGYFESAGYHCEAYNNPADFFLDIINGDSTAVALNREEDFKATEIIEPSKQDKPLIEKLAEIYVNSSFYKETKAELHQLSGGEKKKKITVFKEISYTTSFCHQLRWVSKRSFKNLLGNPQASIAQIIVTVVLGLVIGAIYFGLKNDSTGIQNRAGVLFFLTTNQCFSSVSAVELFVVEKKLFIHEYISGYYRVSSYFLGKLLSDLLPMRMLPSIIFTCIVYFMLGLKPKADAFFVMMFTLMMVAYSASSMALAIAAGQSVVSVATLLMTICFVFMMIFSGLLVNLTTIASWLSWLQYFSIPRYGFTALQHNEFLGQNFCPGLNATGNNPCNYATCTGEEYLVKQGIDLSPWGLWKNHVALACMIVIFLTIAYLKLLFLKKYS
From the text: as §2

[10] = system: CYP1A2, CYP3A4, CYP2C8, CYP2C9, CYP2C19, CYP2D6, CYP2B6; assay: CYP inhibition in human liver microsomes; type: in vitro ADME
[11] = system: T2, CYP1A2, CYP3A4, CYP2C8, CYP2C9, CYP2C19, CYP2D6; assay: CYP inhibition in human liver microsomes; type: in vitro ADME; details: human liver microsomes
T2 construct: IC50, CYP1A2, CYP3A4, CYP2C8, CYP2C9, CYP2C19, CYP2D6; other: human liver microsomes

[12] = for Day 90 Free Margin for AUC24 at NOAEL for Dog 90-Day Toxicology / Day 90 Free Plasma AUC24 at NOAEL for Dog 90-Day Toxicology: Beagle; for Day 90 Free Plasma AUC24 at NOAEL for Dog 90-Day Toxicology: 30 mg/kg/day; for Day 90 Free Plasma AUC24 at NOAEL for Rat 90-Day Toxicology: 300 mg/kg/day
[13] = in vivo; details: rat, po
[14] = 90-day oral toxicology in Beagle dogs; details: Beagle, dog, in vivo, po
[15] = Crossover bioavailability study IR vs MR1 vs MR2 capsules: PK; set-up: AUC72hr: unit not given beside the values; details: for AUC72hr Ratio / Cmax Ratio: metabolite to CX-8998; for AUC72hr / Cmax / Tmax: plasma
[16] = rat plasma, read-out: In vitro plasma protein binding (converted)
[17] = dog plasma, read-out: In vitro plasma protein binding (converted)
[18] = read-out: Free fraction in dog plasma
[19] = single 8 mg dose of MR1 CX-8998
[20] = single 8 mg dose of MR2 CX-8998
[21] = following a single 8 mg dose of MR1 CX-8998
[22] = following a single 8 mg dose of MR2 CX-8998

C=C(C)c1ccc(CC(=O)N[C@H](C)c2ccc(OCC(F)(F)F)cn2)cc1 [M01]
AUCinf, middle-aged and elderly female vs male subjects [1]: 2% lower | Cmax, middle-aged and elderly female vs male subjects [1]: 12% lower | Percent of inhibition [2]: 71% | Ratio of AUC24 (metabolite/CX-8998) ([3]; Female): 0.52 | Ratio of AUC24 (metabolite/CX-8998) ([3]; Male): 0.63 | AUC ([3]; female): 8.7 µM·h | AUC ([3]; male): 3.7 µM·h | Ratio of AUC24 (metabolite/CX-8998) ([4]; Dog, Male, single oral dose 0.5 mg/kg of CX-8998): 0.21 | AUC [4]: 1.4 µM·h | fraction unbound [5, 16]: 0.004 | fraction unbound ([5]; rats, read-out: free fraction): 0.004 | fraction unbound [6, 17]: 0.003 | fraction unbound ([6]; dogs, read-out: free fraction): 0.003 | fraction unbound [6, 18]: 0.003 | fraction unbound [7]: 0.004 | P-glycoprotein substrate or inhibitor activity [8]: did not demonstrate any activity as a substrate or inhibitor | Inhibition of BCRP transport ([9]; 30 μM): 57% | Time-dependent inhibition of CYP3A4 or CYP2B6 [10]: insignificant | IC50 [11]: > 20 µM | Day 90 Free Margin for AUC24 at NOAEL for Dog 90-Day Toxicology ([12]; female): >16 | Day 90 Free Plasma AUC24 at NOAEL for Dog 90-Day Toxicology ([12]; female): <309 nM · hr | Day 90 Free Margin for AUC24 at NOAEL for Rat 90-Day Toxicology ([12]; female, rat): >49 | Day 90 Free Plasma AUC24 at NOAEL for Rat 90-Day Toxicology ([12]; female, rat): <936 nM · hr | Day 90 Free Margin for AUC24 at NOAEL for Dog 90-Day Toxicology ([12]; male): >19 | Day 90 Free Plasma AUC24 at NOAEL for Dog 90-Day Toxicology ([12]; male): <363 nM · hr | Day 90 Free Margin for AUC24 at NOAEL for Rat 90-Day Toxicology ([12]; male, rat): >26 | Day 90 Free Plasma AUC24 at NOAEL for Rat 90-Day Toxicology ([12]; male, rat): <500 nM · hr | AUC ([13]; female, 5 mg/kg): 5.02 µM·h | AUC ([13]; female, 15 mg/kg): 20.3 µM·h | AUC ([13]; female, 100 mg/kg): 231 µM·h | AUC ([13]; female, 300 mg/kg): 234 µM·h | AUC ([13]; male, 5 mg/kg): 4.33 µM·h | AUC ([13]; male, 15 mg/kg): 11.3 µM·h | AUC ([13]; male, 100 mg/kg): 85.9 µM·h | AUC ([13]; male, 300 mg/kg): 125 µM·h | AUC ([14]; female, 10 mg/kg): 38.6 µM·h | AUC ([14]; female, 30 mg/kg): 103 µM·h | AUC ([14]; female, 100 mg/kg/day): 431 µM·h | AUC ([14]; male, 10 mg/kg): 54.9 µM·h | AUC ([14]; male, 30 mg/kg): 121 µM·h | AUC ([14]; male, 100 mg/kg/day): 1770 µM·h | AUC72hr Ratio ([15]; single 8 mg dose of IR CX-8998): 0.92 | Cmax Ratio ([15]; single 8 mg dose of IR CX-8998): 0.14 | AUC72hr Ratio [15, 19]: 0.95 | Cmax Ratio [15, 19]: 0.27 | AUC72hr Ratio [15, 20]: 0.90 | Cmax Ratio [15, 20]: 0.35 | AUC72hr [15, 21]: 7118 | Cmax [15, 21]: 121 nM | Tmax [15, 21]: 26 h | AUC72hr [15, 22]: 6395 | Cmax [15, 22]: 113 nM | Tmax [15, 22]: 39 h

C[C@@H](NC(=O)Cc1ccc(C(C)(C)O)cc1)c1ccc(OCC(F)(F)F)cn1 [M02]
AUCinf, middle-aged and elderly female vs male subjects [1]: 11% lower | Cmax, middle-aged and elderly female vs male subjects [1]: 2% higher | Percent of inhibition [2]: 67% | AUC ([3]; female): 31 µM·h | AUC ([3]; male): 10 µM·h | AUC [4]: 7.8 µM·h | fraction unbound [5, 16]: 0.29 | fraction unbound ([5]; rats, read-out: free fraction): 0.29 | fraction unbound [6, 17]: 0.18 | fraction unbound ([6]; dogs, read-out: free fraction): 0.18 | fraction unbound [6, 18]: 0.18 | fraction unbound [7]: 0.17 | P-glycoprotein substrate or inhibitor activity [8]: showed increased efflux in the rat and monkey assays | Inhibition of BCRP-mediated transport ([9]; up to 30 μM): did not inhibit | Time-dependent inhibition of CYP3A4 or CYP2B6 [10]: insignificant | IC50 [11]: > 20 µM | Day 90 Free Margin for AUC24 at NOAEL for Rat 90-Day Toxicology ([12]; Female rats vs human 10 mg BID): 129 | Day 90 Free Margin for Cmax at NOAEL for Rat 90-Day Toxicology ([12]; Male rats vs human 10 mg BID (fed)): 117 | Day 90 Free Margin for AUC24 at NOAEL for Dog 90-Day Toxicology ([12]; female): 33 | Day 90 Free Plasma AUC24 at NOAEL for Dog 90-Day Toxicology ([12]; female): 37,620 nM · hr | Day 90 Free Plasma AUC24 at NOAEL for Rat 90-Day Toxicology ([12]; female, rat): 148,190 nM · hr | Day 90 Free Margin for AUC24 at NOAEL for Dog 90-Day Toxicology ([12]; male): 33 | Day 90 Free Plasma AUC24 at NOAEL for Dog 90-Day Toxicology ([12]; male): 38,340 nM · hr | Day 90 Free Margin for AUC24 at NOAEL for Rat 90-Day Toxicology ([12]; male, rat): 65 | Day 90 Free Plasma AUC24 at NOAEL for Rat 90-Day Toxicology ([12]; male, rat): 74,820 nM · hr | AUC ([13]; female, 5 mg/kg): 16.7 µM·h | AUC ([13]; female, 15 mg/kg): 54.8 µM·h | AUC ([13]; female, 100 mg/kg): 567 µM·h | AUC ([13]; female, 300 mg/kg): 511 µM·h | AUC ([13]; male, 5 mg/kg): 12 µM·h | AUC ([13]; male, 15 mg/kg): 26.1 µM·h | AUC ([13]; male, 100 mg/kg): 186 µM·h | AUC ([13]; male, 300 mg/kg): 258 µM·h | AUC ([14]; female, 10 mg/kg): 103 µM·h | AUC ([14]; female, 30 mg/kg): 209 µM·h | AUC ([14]; female, 100 mg/kg/day): 339 µM·h | AUC ([14]; male, 10 mg/kg): 149 µM·h | AUC ([14]; male, 30 mg/kg): 213 µM·h | AUC ([14]; male, 100 mg/kg/day): 1800 µM·h | Tmax ([15]; following a single 8 mg dose of IR CX-8998): 5 h | AUC72hr [15, 21]: 3343 | Cmax [15, 21]: 94 nM | Tmax [15, 21]: 11 h | AUC72hr [15, 22]: 3142 | Cmax [15, 22]: 73 nM | Tmax [15, 22]: 16 h
